Assay results from ChEMBL document CHEMBL1201862, “PubChem BioAssay data set” (2004).
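How tested: cells in 96-well plates exposed to compound for 48 hours at five concentrations. GI50 = concentration required for 50% inhibition of growth.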 Activity calls are given as the source filed them. Cut-off read from the data, not from the text of the source: active = GI50 up to about 1.1 µM and inactive = higher.

Assays:
Experiment in all cases: NCI anticancer screen, dose series, 48 h
A549 = tested on: A549
CCRF-CEM = tested on: CCRF-CEM
EKVX = tested on: EKVX
HT-29 = tested on: HT-29
K562 = tested on: K562
KM12 = tested on: KM12
LOX IMVI = tested on: LOX IMVI
MOLT-4 = tested on: MOLT-4
NCI-H460 = tested on: NCI-H460
NCI/ADR-RES = tested on: NCI/ADR-RES
OVCAR-8 = tested on: OVCAR-8
SF-295 = tested on: SF-295
SF-539 = tested on: SF-539
SK-MEL-28 = tested on: SK-MEL-28
SK-MEL-2 = tested on: SK-MEL-2
SK-MEL-5 = tested on: SK-MEL-5
SN12C = tested on: SN12C
SNB-75 = tested on: SNB-75
RPMI-8226 = tested on: RPMI-8226
UO-31 = tested on: UO-31

Measured: GI50

COC(=O)[C@@H]1O[C@]12[C@@H](CO[Si](C)(C)C(C)(C)C)O[C@@H](n1cc(C)c(=O)[nH]c1=O)[C@@H]2O[Si](C)(C)C(C)(C)C
inactive: A549 25.5 µM | CCRF-CEM 2.39 µM | EKVX 23.5 µM | HT-29 6.11 µM | K562 7.96 µM | KM12 23 µM | LOX IMVI 3.38 µM | MOLT-4 2.84 µM | NCI-H460 11.6 µM | NCI/ADR-RES 13.6 µM | OVCAR-8 15.3 µM | SF-295 21.2 µM | SF-539 21.3 µM | SK-MEL-28 19.8 µM | SK-MEL-2 15 µM | SK-MEL-5 19.7 µM | SN12C 13.8 µM | SNB-75 23.1 µM

C=C1c2c(cc3c(c2O)c(=O)c2ccccc2n3C)OC1(C)C
inactive: CCRF-CEM > 100 µM | EKVX > 100 µM | HT-29 37.7 µM | K562 > 10 µM | LOX IMVI > 100 µM | MOLT-4 > 100 µM | NCI-H460 59 µM | OVCAR-8 52.6 µM | RPMI-8226 > 100 µM | SF-295 22.5 µM | SF-539 35.2 µM | SK-MEL-28 > 100 µM | SK-MEL-2 40.3 µM | SK-MEL-5 > 100 µM | SN12C > 100 µM | SNB-75 16.9 µM | UO-31 > 100 µM

O=C1CCCC(=O)N1CCc1c[nH]c2ccccc12
inactive: A549 > 100 µM | CCRF-CEM > 100 µM | EKVX > 100 µM | HT-29 > 100 µM | K562 > 100 µM | KM12 > 100 µM | MOLT-4 > 100 µM | NCI-H460 > 100 µM | OVCAR-8 > 100 µM | SF-295 > 100 µM | SF-539 > 100 µM | SK-MEL-28 > 100 µM | SK-MEL-2 > 100 µM | SK-MEL-5 > 100 µM | SN12C > 100 µM | SNB-75 > 100 µM | UO-31 > 100 µM

CC1(O)OC(=O)C2=C1CCC1C2CCC2(C)C(O)CCC12 (stereo unspecified)
inactive: A549 > 100 µM | CCRF-CEM > 100 µM | EKVX > 100 µM | HT-29 > 100 µM | K562 > 100 µM | KM12 > 100 µM | LOX IMVI 25.6 µM | MOLT-4 > 10 µM | NCI-H460 > 100 µM | NCI/ADR-RES > 100 µM | OVCAR-8 > 100 µM | RPMI-8226 > 100 µM | SF-295 > 100 µM | SF-539 > 100 µM | SK-MEL-28 > 100 µM | SK-MEL-5 > 100 µM | SN12C > 100 µM | UO-31 > 100 µM

COc1ccccc1C1C(Cl)C(=O)N1n1cnc2ccccc2c1=O (stereo unspecified)
inactive: A549 > 100 µM | CCRF-CEM > 100 µM | EKVX > 100 µM | HT-29 > 100 µM | K562 > 100 µM | KM12 > 100 µM | LOX IMVI > 100 µM | MOLT-4 > 100 µM | NCI-H460 > 100 µM | OVCAR-8 > 100 µM | RPMI-8226 > 100 µM | SF-295 > 100 µM | SK-MEL-28 > 100 µM | SK-MEL-2 > 100 µM | SK-MEL-5 > 100 µM | SN12C > 100 µM | SNB-75 40.6 µM | UO-31 45.6 µM

Cc1cc(NC(=S)SCc2ccc(F)cc2)c([N+](=O)[O-])cc1C
inactive: A549 27.7 µM | EKVX 39.6 µM | HT-29 13.6 µM | K562 32.3 µM | KM12 19.9 µM | MOLT-4 3.29 µM | NCI-H460 36.7 µM | NCI/ADR-RES 25.8 µM | OVCAR-8 19 µM | SF-295 34.5 µM | SF-539 23.8 µM | SK-MEL-28 39.1 µM | SK-MEL-5 8.71 µM | SN12C 19.4 µM | SNB-75 46.9 µM

CC(=O)O[C@@H]1[C@H]2[C@@H](OC(=O)c3ccccc3)[C@@H](C)C[C@]2(O)[C@H](OC(C)=O)[C@@]2(C)[C@@H]3C[C@@](C)(OC(C)=O)C[C@@H](OC(C)=O)[C@@]3(OC(C)=O)C[C@@]12C
inactive: CCRF-CEM > 10 µM | EKVX > 10 µM | K562 > 10 µM | KM12 > 10 µM | LOX IMVI > 10 µM | MOLT-4 > 10 µM | NCI-H460 > 10 µM | NCI/ADR-RES > 10 µM | OVCAR-8 > 10 µM | SF-295 > 10 µM | SF-539 > 10 µM | SK-MEL-2 > 10 µM | SK-MEL-5 > 10 µM | SN12C > 10 µM | SNB-75 > 10 µM | UO-31 > 10 µM

COc1cc(C2C(C(=O)O)=C(COC(C)=O)Oc3cc4c(cc32)OCO4)cc(OC)c1OC (stereo unspecified)
inactive: A549 > 100 µM | CCRF-CEM > 100 µM | EKVX > 100 µM | HT-29 > 100 µM | K562 > 100 µM | LOX IMVI > 100 µM | MOLT-4 > 100 µM | NCI-H460 > 100 µM | OVCAR-8 > 100 µM | RPMI-8226 > 100 µM | SF-295 > 100 µM | SK-MEL-28 > 100 µM | SK-MEL-2 > 100 µM | SK-MEL-5 > 100 µM | SN12C > 100 µM | SNB-75 41 µM | UO-31 > 100 µM

c1c2c(cc(-n3nnc4c3CCCCCC4)c1-n1nnc3c1CCCCCC3)CCCCCC2
inactive: CCRF-CEM 3.79 µM | EKVX 10.7 µM | HT-29 6.93 µM | K562 4.36 µM | KM12 11.8 µM | LOX IMVI 11.8 µM | MOLT-4 2.57 µM | NCI-H460 6.3 µM | OVCAR-8 12.7 µM | SF-295 12 µM | SK-MEL-28 17.2 µM | SK-MEL-2 13.1 µM | SK-MEL-5 11.7 µM | SN12C 10.8 µM | SNB-75 12.7 µM | UO-31 5.4 µM

CC(=O)OCC1OC(N2C(=O)NC(=O)C3C=C4CCCCC4=CC32)C(OC(C)=O)C1OC(C)=O (stereo unspecified)
inactive: A549 > 100 µM | CCRF-CEM > 100 µM | EKVX > 100 µM | K562 > 100 µM | LOX IMVI > 100 µM | MOLT-4 > 100 µM | NCI-H460 > 100 µM | RPMI-8226 > 100 µM | SF-295 > 100 µM | SF-539 > 100 µM | SK-MEL-28 > 100 µM | SK-MEL-2 > 100 µM | SK-MEL-5 > 100 µM | SN12C > 100 µM | UO-31 > 100 µM

CC(C)(C)N1C(C(=O)c2ccccc2)C1c1ccccc1 (stereo unspecified)
inactive: A549 > 100 µM | CCRF-CEM > 100 µM | EKVX > 100 µM | HT-29 > 100 µM | K562 > 100 µM | KM12 > 100 µM | LOX IMVI > 100 µM | MOLT-4 > 100 µM | NCI-H460 > 100 µM | OVCAR-8 > 100 µM | RPMI-8226 > 100 µM | SF-539 > 100 µM | SK-MEL-28 > 100 µM | SK-MEL-5 > 100 µM | SN12C > 100 µM | SNB-75 > 100 µM

Cc1cc2c(cc1C)N1Cc3c(ccc(C)c3C)N(C2)C1.Cc1cc2c(cc1C)N1Cc3cc(C)c(C)cc3N(C2)C1
inactive: A549 > 100 µM | CCRF-CEM > 100 µM | EKVX > 100 µM | HT-29 > 100 µM | K562 70.8 µM | KM12 > 100 µM | LOX IMVI 86.7 µM | MOLT-4 > 100 µM | NCI-H460 > 100 µM | OVCAR-8 > 100 µM | RPMI-8226 > 100 µM | SF-295 89.5 µM | SF-539 > 100 µM | SK-MEL-28 > 100 µM | SK-MEL-5 > 100 µM | SN12C 10 µM | SNB-75 > 100 µM

Cc1nc2c(sc(=S)n2-c2ccccc2)c(=O)[nH]1
inactive: A549 > 100 µM | CCRF-CEM > 100 µM | HT-29 > 100 µM | K562 > 100 µM | KM12 > 100 µM | MOLT-4 > 100 µM | NCI-H460 > 100 µM | OVCAR-8 > 100 µM | RPMI-8226 > 100 µM | SF-295 > 100 µM | SF-539 > 100 µM | SK-MEL-28 > 100 µM | SK-MEL-2 > 100 µM | SK-MEL-5 > 100 µM | UO-31 > 100 µM

CCCCCCCCC(O)c1ccc(/C=C\C(O)CCCC(=O)O)s1 (stereo unspecified)
inactive: A549 > 100 µM | CCRF-CEM > 100 µM | EKVX > 100 µM | HT-29 > 100 µM | K562 > 100 µM | KM12 > 100 µM | LOX IMVI > 100 µM | MOLT-4 > 100 µM | NCI-H460 > 100 µM | OVCAR-8 > 100 µM | RPMI-8226 > 100 µM | SF-295 > 100 µM | SF-539 > 100 µM | SK-MEL-28 > 100 µM | SK-MEL-2 > 100 µM | SK-MEL-5 > 100 µM | SN12C > 100 µM | SNB-75 > 100 µM | UO-31 > 100 µM

O=c1c(-c2ccc(O)cc2)coc2cc(O)cc(O)c12 [GENISTEIN]
inactive: A549 62.4 µM | CCRF-CEM > 10 µM | EKVX 63.1 µM | HT-29 > 100 µM | K562 > 100 µM | KM12 > 100 µM | MOLT-4 40.4 µM | NCI-H460 42 µM | NCI/ADR-RES > 100 µM | OVCAR-8 > 100 µM | RPMI-8226 77.8 µM | SF-295 55 µM | SF-539 > 100 µM | SK-MEL-28 > 100 µM | SK-MEL-5 > 100 µM | SN12C 52.5 µM | UO-31 24.9 µM
